Data taken from patent US11007169B2, “Cis-gnetin H and trans-gnetin H as therapeutic agents” (MIDDLE TENNESSEE STATE UNIVERSITY, priority 2014, dated 2021).

Legend:
[1] = tested on: phosphorylated IκB α (Ser32) in LPS-stimulated THP-1 cells; test: Western blot, IκB α phosphorylation; format: cell-based, human; details: concentration-dependent
Procedure: THP-1 cells were maintained in RPMI 1640 medium supplemented with 10% complement-inactivated FBS and 1% penicillin/streptomycin (complete culture medium) at 37° C. with 5% CO2 supplemented. Cell concentrations were adjusted to desired concentrations for each experiment by centrifugation at 500×g for 5 min and resuspended in complete culture medium with 100 nM of PMA. Cell concentration was adjusted to 5×10^5 cells/ml for all assays and 2.5×10^5 cells/ml were used for NF-κB nuclear translocation assay. Cells were seeded onto 96-, 24-, or 12-well plates and incubated for 48 to 72 h to allow for differentiation. Cells were washed with serum-free RPMI 1640 medium before each experiment to remove the undifferentiated cells.
Differentiated THP-1 cells were pretreated with various concentrations of cis-gnetin H, trans-gnetin H, or 10 μM of Bay 11-7082 for 1 h and stimulated with 1 μg/ml of LPS for 15 min. Cells were lysed with radio-immunoprecipitation assay (RIPA; 1% Triton X-100, 0.5% Sodium deoxycholate, 0.1% sodium dodecyl sulfate, 150 mM sodium chloride, and 50 mM Tris-chloride) lysis buffer that contained protease and phosphatase inhibitor cocktail. Cell lysates were then tested for protein concentration using a BCA protein assay, and diluted with RIPA lysis buffer to normalize protein concentration in all samples. […]

[2] = tested on: mitochondrial cytochrome c in A549 cells; test: Analysis of cytochrome c by flow cytometry, A549; format: cell-based, human; details: 100 μM, 24 hours
Procedure: (§1) A549 and BT20 cells were seeded in a 96-well plate (BD Falcon) at a density of 8000 cells/well and treated with 100 μM of cis- or trans-gnetin H for 24 hours. The expression of cytochrome c was evaluated using the FlowCellect Cytochrome c Kit (Millipore) according to the manufacturer's instructions. Cells were stained with either Anti-IgG1-FITC Isotype control or Anti-Cytochrome c-FITC, and data was acquired and analyzed using the Guava Flow Cytometer (Millipore).

[3] = tested on: mitochondrial cytochrome c in BT20 cells; test: Analysis of cytochrome c by flow cytometry, BT20; format: cell-based, human; details: 100 μM, 24 hours
Procedure: as §1

[4] = tested on: HMEC cells (human mammary epithelial cells); test: Inhibition of cell proliferation, AlamarBlue fluorescent assay, HMEC normal control; format: cell-based; details: for inhibitory effects on normal HMEC cells: 10 uM, up to 48 hours; for IC50: Homo sapiens, HMEC, 48 hours, AlamarBlue, normal cell line
Procedure: The cancer cell lines used in this study included human lung carcinoma (A549), human breast carcinoma (BT20 and MCF-7) and human osteosarcoma (U2OS), with the normal cell lines human peripheral lung epithelial cells (HPL1A) and human mammary epithelial cells (HMEC) serving as controls. A549, BT20, MCF-7, U2OS and HMEC cells were purchased from American Type Culture Collection (ATCC, USA), and HPL1A cells were obtained from Nagoya University, Japan. A549 and BT20 were grown in RPMI-1640 (Sigma), MCF-7 was grown in Dulbecco's Modified Eagle Medium (DMEM) (Sigma) supplemented with 0.01 mg/ml human recombinant insulin (Sigma), U2OS and HMEC were grown in McCoy's 5A (ATCC), and HPL1A was grown in DMEM/F-12K (Sigma). The mediums were supplemented with 10% Fetal Bovine Serum (FBS) (Gibco), 1% penicillin and streptomycin and incubated in a humidified atmosphere with 5% CO2 at 37° C.
The proliferation inhibition potential of cis- and trans-gnetin H was determined by a fluorescence dye staining method. Cells were seeded in a 96-well tissue culture-treated plate (BD Falcon) at a density of 4000 cells/well, and treated with cis- or trans-gnetin H for 48 hours. AlamarBlue dye (Invitrogen) was used to assess the viability of cells according to the manufacturer's instructions; the fluorescent intensity was read on a SpectraMax M2e microplate reader (Molecular Devices Inc.).
For the determination of IC50 values, cells were treated with a serial dilution (320 μM, 100 μM, 32 μM, 10 μM, 3.2 μM, and 0.32 μM) of cis- or trans-gnetin H for 48 hours. Cell viability was determined with AlamarBlue dye (Invitrogen) and the IC50 values were calculated using non-linear regression analysis.

A549 cells [5] = test: Multi-parameter cytotoxicity measurement, Arrayscan VTI HCS Reader; format: cell-based, human; details: for mitochondria transmembrane potential: A549, after both 24 hrs and 48 hrs
Procedure: A549 cells were seeded in a 96-well plate (BD Falcon) at a density of 4000 cells/well, and then treated with different concentrations ([…] 100 μM) of cis- or trans-gnetin H for 24 hours and 48 hours. Non-treated cells and cells treated with 100 μM Valinomycin were used as negative and positive controls. After treatment, the cells were stained with a mixture of fluorescent dyes including Hoechst 33342 (blue florescence), cell permeability dye (green florescence) and mitochondrial membrane potential dye (red florescence) (Thermo Scientific). The three dyes allow changes in nuclear morphology, cell membrane permeability and mitochondrial trans-membrane potential to be determined. The cells were fixed and washed, and images for each fluoroprobe were acquired at different channels using suitable filters with a 20× objective and analyzed on the Arrayscan VTI HCS Reader (Thermo Scientific). The Cell Health Profiling BioApplication software (Thermo Scientific) was used for image acquisition and analysis. For each well, at least 400 cells were automatically acquired and analyzed. The average fluorescent intensity was used to quantify changes in each channel and each experiment was performed in triplicate.

A549 cells [6] = test: Apoptosis assay by flow cytometry, A549; format: cell-based, human; details: 100 μM, 24 hours
Procedure: A549 and BT20 cells were seeded in a 96-well plate (BD Falcon) at a density of 8000 cells/well, and treated with cis- or trans-gnetin H for 24 hours. Apoptosis was assessed using Annexin V/7-AAD double staining as described (Bai et al., Cancer Sci. 2010; 101(2):488-493). Cells were analyzed on a Guava Flow Cytometer (Millipore) using InCyte software and the data was exported to FlowJo software for image display.

Structure (SMILES)	IκB α phosphorylation [1]	cytochrome c release in A549 [2]	cytochrome c release in BT20 [3]	inhibitory effects on normal HMEC cells [4]	IC50 [4] [µM]	nuclear size (A549 cells [5]; A549, 24 hrs treatment)	nuclear size (A549 cells [5]; A549, 48 hrs treatment)	mitochondria transmembrane potential (A549 cells [5])	apoptosis induction in A549 (A549 cells [6])
Oc1ccc(/C=C\c2c3c(cc4c2[C@H](c2cc(O)cc(O)c2)[C@@H](c2ccc(O)cc2)O4)O[C@H](c2ccc(O)cc2)[C@H]3c2cc(O)cc(O)c2)cc1 [cis-gnetin H]	significantly inhibited	release of mitochondrial cytochrome c	release of mitochondrial cytochrome c	no such obvious inhibitory effects	26.7	no alternation in nuclear size	reduction in nuclear size	reduction in the mitochondria transmembrane potential	induce apoptosis
Oc1ccc(/C=C/c2c3c(cc4c2[C@H](c2cc(O)cc(O)c2)[C@@H](c2ccc(O)cc2)O4)O[C@H](c2ccc(O)cc2)[C@H]3c2cc(O)cc(O)c2)cc1 [trans-gnetin H]	significantly inhibited	release of mitochondrial cytochrome c	release of mitochondrial cytochrome c	no such obvious inhibitory effects	25.9	no alternation in nuclear size	reduction in nuclear size	reduction in the mitochondria transmembrane potential	induce apoptosis
